Test results reported in publication PMC6941952, “A homogeneous bioluminescent immunoassay to probe cellular signaling pathway regulation” (Communications Biology, 2020).
pIC50: −log10 of the molar value. Values joined by “and” are separate entries in the source; they are usually repeats but may differ in a detail not shown here. Equal entries are not always repeated. Each block holds one molecule with its values, some of them ahead of it.

Experiments:
total IκBα = assay: NanoBiT cell-based immunoassay, total IκBα in human breast tumor epithelial cells; details: for IkB degradation (% compared to no IKK16), Average / IkB degradation (% compared to no IKK16) / Non-Treated/Treated / Raw data / Subtract reagent background: Breast tumor cells, TNF; for IkB degradation (% compared to no IKK16), Average: average of replicates; for IkB degradation (% compared to no IKK16) / Non-Treated/Treated / Raw data / Subtract reagent background: single replicates; for Total IkB Average / Total IkB Raw data / Total IkB Subtract reagent background: Breast Tumor Cells; for Total IkB Average: background subtracted; for Total IkB Raw data / Total IkB Subtract reagent background: listed as TNF
Method: All cell lines used are from ATCC. […] Human Primary Mammary Epithelial Cells (#H-6035), Human Breast Tumor Epithelial Cells (#HC-6035), Complete Human Epithelial Cell Medium (#H6621), and Gelatin-Based Coating Solution (#H6950) were purchased from Cell Biologics. The cells were cultured according to the manufacturer’s procedure. All cells were grown at 37 °C in a 5% CO2 humidified incubator and passaged before reaching 80% cell confluency. Prior to each experiment, cells were counted by combining 30 µl of cell suspension with 30 µl of trypan blue. After gentle pipetting up and down to mix the cells and the dye, the cell number was determined using Bio-Rad TC 20 cell counter.
(§1) Prior to NanoBiT Cell-Based Immunoassay, 50,000 cells were seeded in 160 µl of complete growth media per well of a 96-well plate and incubated overnight. The cells were checked under microscope and it was determined that 50,000 cells per well in 96-well plate is under 90% confluency for all cells tested. If necessary, the cell culture media were replaced with serum-free media after the cells were stably adherent on the plate and incubated overnight. To treat cells with activators or inhibitors, medium was changed to 30 µl of medium containing inhibitors. If activation of a specific pathway is needed, the cells were stimulated with 10 µl of medium containing activators. To lyse the cells, 10 µl of lysis buffer containing 0.1% digitonin diluted in 1X immunoassay buffer with protease and phosphatase inhibitors was added and the plates were mixed vigorously for 20 min. Then, 50 µl of an antibody mix containing two primary antibodies against the target protein and NanoBiT detecting antibodies (0.3 µl each per well), diluted in 1X immunoassay buffer was added to the lysates. The plates were incubated at 23 °C for 90 min, followed by the addition of 25 µl of Nano-Glo® reagent consisting of Nano-Glo® Luciferase Assay Substrate mixed with 1X immunoassay buffer. Luminescence was measured using a plate-reading luminometer.
(§2) Single dose or dose response inhibitor treatments were performed prior to activation of the pathways as follows. For IκBα, the cells were treated in 30 µl medium with IKK16 or MG132 for 60 min before the addition of 10 µl of DMEM containing appropriate concentration of TNFα. To measure phosphorylation of AKT or STAT3, the corresponding NanoBiT immunoassays were developed with MCF-7 or A431 cells, respectively, according the same scheme used to develop the IκBα assay using the primary antibodies for AKT and STAT3 described in the reagents section. For the AKT assay, MCF-7 cells were incubated overnight in phenol-red free DMEM medium (Gibco #21063-029) without serum. Treatment with LY294002 was performed in 30 µl medium and cells were incubated for 60 min before the addition of 1 µM Insulin. To measure STAT3 phosphorylation, A431 cells were incubated overnight in DMEM medium without serum. […] After addition of the stimulators, the cells were incubated for additional times as follows. IκBα phosphorylation and degradation analyses required both time courses and single time points as described in figures. […] The NanoBiT immunoassay protocol was followed as described above.
(§3) All 96-well assay plates were read using a GloMax® 96 Microplate Luminometer from Promega. The instrument was set to 0.5 s integration time. In order to obtain net change of signal, the reagent background values (signal from the well containing all reagent except primary antibodies) were subtracted from the sample values. To plot and analyze the data, Microsoft Excel and GraphPad Prism® Software were used. IC50 values were determined by using a nonlinear regression fit to a sigmoidal dose response (variable slope).

total NF-κB p65 = assay: NanoBiT cell-based immunoassay, total p65 in MCF-7 cells; parameters: species or system human; details: for level of p65: MCF-7 cells, TNFα 50 ng per ml 10 min, IKK16 10 µM 1 h; for Total p65, Average: background subtracted, average of replicates; for Total p65, Raw data / Total p65, Subtract reagent background: single replicates
Method: as §1, §2, §3

- pIC50 (total IκBα; human primary breast tumor epithelial cells, pretreated 1 h, then TNFα 50 ng per ml 30 min, read-out: IC50, inhibition of TNFα induced degradation of IκBα): 5.74
Molecule: O=C(c1ccc(Nc2nccc(-c3cc4ccccc4s3)n2)cc1)N1CCC(N2CCCC2)CC1 [IKK16]
- IkB degradation (% compared to no IKK16), Average (total IκBα; IKK16 0.000762939 uM): 97.6%
- IkB degradation (% compared to no IKK16) (total IκBα; IKK16 0.000762939 uM): 92% and 104% and 97%
- Non-Treated/Treated (total IκBα; IKK16 0.000762939 uM): 3.423 and 4.061 and 3.878
- Raw data (total IκBα; IKK16 0.000762939 uM): 10940 and 10560 and 10750
- Subtract reagent background (total IκBα; IKK16 0.000762939 uM): 5493 and 5113 and 5303
- IkB degradation (% compared to no IKK16), Average (total IκBα; IKK16 0.00305176 uM): 98.3%
- IkB degradation (% compared to no IKK16) (total IκBα; IKK16 0.00305176 uM): 97% and 96% and 102%
- Non-Treated/Treated (total IκBα; IKK16 0.00305176 uM): 3.600 and 3.739 and 4.102
- Raw data (total IκBα; IKK16 0.00305176 uM): 10670 and 11000 and 10460
- Subtract reagent background (total IκBα; IKK16 0.00305176 uM): 5223 and 5553 and 5013
- IkB degradation (% compared to no IKK16), Average (total IκBα; IKK16 0.012207 uM): 95.1%
- IkB degradation (% compared to no IKK16) (total IκBα; IKK16 0.012207 uM): 98% and 99% and 88%
- Non-Treated/Treated (total IκBα; IKK16 0.012207 uM): 3.656 and 3.857 and 3.531
- Raw data (total IκBα; IKK16 0.012207 uM): 10590 and 10830 and 11270
- Subtract reagent background (total IκBα; IKK16 0.012207 uM): 5143 and 5383 and 5823
- IkB degradation (% compared to no IKK16), Average (total IκBα; IKK16 0.0488281 uM): 99.5%
- IkB degradation (% compared to no IKK16) (total IκBα; IKK16 0.0488281 uM): 95% and 97% and 106%
- Non-Treated/Treated (total IκBα; IKK16 0.0488281 uM): 3.552 and 3.780 and 4.255
- Raw data (total IκBα; IKK16 0.0488281 uM): 10740 and 10940 and 10280
- Subtract reagent background (total IκBα; IKK16 0.0488281 uM): 5293 and 5493 and 4833
- IkB degradation (% compared to no IKK16), Average (total IκBα; IKK16 0.195312 uM): 94.6%
- IkB degradation (% compared to no IKK16) (total IκBα; IKK16 0.195312 uM): 95% and 102% and 87%
- Non-Treated/Treated (total IκBα; IKK16 0.195312 uM): 3.532 and 3.953 and 3.507
- Raw data (total IκBα; IKK16 0.195312 uM): 10770 and 10700 and 11310
- Subtract reagent background (total IκBα; IKK16 0.195312 uM): 5323 and 5253 and 5863
- IkB degradation (% compared to no IKK16), Average (total IκBα; IKK16 0.78125 uM): 86.9%
- IkB degradation (% compared to no IKK16) (total IκBα; IKK16 0.78125 uM): 77% and 92% and 91%
- Non-Treated/Treated (total IκBα; IKK16 0.78125 uM): 2.883 and 3.584 and 3.657
- Raw data (total IκBα; IKK16 0.78125 uM): 11970 and 11240 and 11070
- Subtract reagent background (total IκBα; IKK16 0.78125 uM): 6523 and 5793 and 5623
- IkB degradation (% compared to no IKK16), Average (total IκBα; IKK16 3.125 uM): 49.5%
- IkB degradation (% compared to no IKK16) (total IκBα; IKK16 3.125 uM): 48% and 52% and 49%
- Non-Treated/Treated (total IκBα; IKK16 3.125 uM): 1.799 and 2.002 and 1.952
- Raw data (total IκBα; IKK16 3.125 uM): 15900 and 15820 and 15980
- Subtract reagent background (total IκBα; IKK16 3.125 uM): 10453 and 10373 and 10533
- level of p65 (total NF-κB p65): not affected
- Total p65, Average (total NF-κB p65; TNF + Ikk16): 726760
- Total p65, Raw data (total NF-κB p65; TNF + Ikk16): 756500 and 718200 and 763300
- Total p65, Subtract reagent background (total NF-κB p65; TNF + Ikk16): 744060 and 737260 and 698960
- Total p65, Average (total NF-κB p65; substance alone): 788717
- Total p65, Raw data (total NF-κB p65; substance alone): 811900 and 763300 and 846900
- Total p65, Subtract reagent background (total NF-κB p65; substance alone): 828250 and 793250 and 744650

Molecule: TNFα
- Total IkB Average (total IκBα; TNF 2 min): 21090
- Total IkB Raw data (total IκBα; TNF 2 min): 27000 and 28670 and 28950
- Total IkB Subtract reagent background (total IκBα; TNF 2 min): 21553 and 21833 and 19883
- Total IkB Average (total IκBα; TNF 4 min): 18310
- Total IkB Raw data (total IκBα; TNF 4 min): 25000 and 25490 and 25790
- Total IkB Subtract reagent background (total IκBα; TNF 4 min): 18373 and 18673 and 17883
- Total IkB Average (total IκBα; TNF 6 min): 13990
- Total IkB Raw data (total IκBα; TNF 6 min): 22120 and 20820 and 20380
- Total IkB Subtract reagent background (total IκBα; TNF 6 min): 13703 and 13263 and 15003
- Total IkB Average (total IκBα; TNF 8 min): 8950
- Total IkB Raw data (total IκBα; TNF 8 min): 16890 and 15660 and 15650
- Total IkB Subtract reagent background (total IκBα; TNF 8 min): 8543 and 8533 and 9773
- Total IkB Average (total IκBα; TNF 10 min): 6003
- Total IkB Raw data (total IκBα; TNF 10 min): 13590 and 12910 and 12860
- Total IkB Subtract reagent background (total IκBα; TNF 10 min): 5793 and 5743 and 6473
- Total IkB Average (total IκBα; TNF 12 min): 3767
- Total IkB Raw data (total IκBα; TNF 12 min): 11390 and 10770 and 10490
- Total IkB Subtract reagent background (total IκBα; TNF 12 min): 3653 and 3373 and 4273
- Total IkB Average (total IκBα; TNF 15 min): 2118
- Total IkB Raw data (total IκBα; TNF 15 min): 9632 and 9015 and 9057
- Total IkB Subtract reagent background (total IκBα; TNF 15 min): 1898 and 1940 and 2515
- Total IkB Average (total IκBα; TNF 30 min): 1696
- Total IkB Raw data (total IκBα; TNF 30 min): 8893 and 8691 and 8853
- Total IkB Subtract reagent background (total IκBα; TNF 30 min): 1574 and 1736 and 1776
- Total IkB Average (total IκBα; TNF 45 min): 4853
- Total IkB Raw data (total IκBα; TNF 45 min): 11970 and 11880 and 12060
- Total IkB Subtract reagent background (total IκBα; TNF 45 min): 4763 and 4943 and 4853
- Total IkB Average (total IκBα; TNF 60 min): 8867
- Total IkB Raw data (total IκBα; TNF 60 min): 15500 and 15850 and 16600
- Total IkB Subtract reagent background (total IκBα; TNF 60 min): 8733 and 9483 and 8383
- level of p65 (total NF-κB p65): not affected
- Total p65, Average (total NF-κB p65; substance alone): 887990
- Total p65, Raw data (total NF-κB p65; substance alone, listed as TNF): 913100 and 869100 and 947500
- Total p65, Subtract reagent background (total NF-κB p65; substance alone, listed as TNF): 925590 and 891190 and 847190
